Laboratory results from patent US20200017496A1 (priority 2017, published 2020).
Read-outs that look alike come from different tables or passages of the source.

System: Klebsiella pneumoniae (KPN) isolates
Experiment: MIC of compounds alone and combined with antibacterials, broth microdilution (CLSI)
Assay type: cell-based
Details: for MIC: Klebsiella pneumoniae, read-out: MIC
Procedure, shortened: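 Inoculum 5·10^5 CFU/mL (final), log phase, ca-MHB; 16-20 h, 35° C, ambient air. MIC = lowest conc. with no visible growth; ATB MIC read at each compound level.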

C=CC1=C(C(=O)O)N2C(=O)[C@@H](NC(=O)/C(=N\OCC(=O)O)c3csc(N)n3)[C@H]2SC1 [FIX, Cefixime]
MIC ATB in combination (KPN UFR65, AF1 @ 8 μg/mL): <=0.25 μg/mL
MIC ATB in combination (KPN UFR66, AF1 @ 4 μg/mL): 1 µg/mL
MIC ATB in combination (KPN UFR66, AF1 @ 8 μg/mL): 0.25 µg/mL
MIC ATB in combination (KPN UFR67, AF1 @ 4 μg/mL): 2 µg/mL
MIC ATB in combination (KPN UFR67, AF1 @ 8 μg/mL): 0.5 µg/mL
MIC ATB in combination (KPN UFR68, AF1 @ 4 μg/mL): 1 µg/mL
MIC ATB in combination (KPN UFR68, AF1 @ 8 μg/mL): 0.25 µg/mL
MIC ATB in combination (KPN UFR77, AF1 @ 4 μg/mL): 16 µg/mL
MIC ATB in combination (KPN UFR77, AF1 @ 8 μg/mL): 8 µg/mL
MIC ATB in combination (KPN UFR78, AF1 @ 4 μg/mL): 128 µg/mL
MIC ATB in combination (KPN UFR78, AF1 @ 8 μg/mL): 32 µg/mL
MIC ATB in combination (KPN UFR79, AF1 @ 4 μg/mL): 16 µg/mL
MIC ATB in combination (KPN UFR79, AF1 @ 8 μg/mL): 4 µg/mL
MIC ATB in combination (KPN UFR80, AF1 @ 4 μg/mL): <=0.25 μg/mL
MIC ATB in combination (KPN UFR80, AF1 @ 8 μg/mL): <=0.25 μg/mL
MIC ATB in combination (KPN UFR81, AF1 @ 4 μg/mL): 16 µg/mL
MIC ATB in combination (KPN UFR81, AF1 @ 8 μg/mL): 2 µg/mL
MIC ATB in combination (KPN UFR215, AF1 @ 4 μg/mL): <=0.25 μg/mL
MIC ATB in combination (KPN UFR215, AF1 @ 8 μg/mL): <=0.25 μg/mL
MIC ATB in combination (KPN UFR216, AF1 @ 4 μg/mL): <=0.25 μg/mL
MIC ATB in combination (KPN UFR216, AF1 @ 8 μg/mL): <=0.25 μg/mL
MIC ATB in combination (KPN UFR217, AF1 @ 4 μg/mL): <=0.25 μg/mL
MIC ATB in combination (KPN UFR217, AF1 @ 8 μg/mL): <=0.25 μg/mL
MIC ATB in combination (KPN UFR219, AF1 @ 4 μg/mL): <=0.25 μg/mL
MIC ATB in combination (KPN UFR219, AF1 @ 8 μg/mL): <=0.25 μg/mL
MIC ATB in combination (KPN UFR220, AF1 @ 4 μg/mL): 4 µg/mL
MIC ATB in combination (KPN UFR220, AF1 @ 8 μg/mL): 2 µg/mL
MIC ATB in combination (KPN UFR221, AF1 @ 4 μg/mL): 2 µg/mL
MIC ATB in combination (KPN UFR221, AF1 @ 8 μg/mL): <=0.25 μg/mL
MIC ATB in combination (KPN UFR222, AF1 @ 4 μg/mL): 32 µg/mL
MIC ATB in combination (KPN UFR222, AF1 @ 8 μg/mL): 16 µg/mL
MIC ATB in combination (KPN UFR227O, AF1 @ 4 μg/mL): 1 µg/mL
MIC ATB in combination (KPN UFR227O, AF1 @ 8 μg/mL): 0.5 µg/mL
MIC (BAA1898, strain KPN BAA-1898 (TEM-1, SHV-11, SHV-12, KPC-2), ATB alone): > 128 µg/mL
MIC (BAA1898, strain KPN BAA-1898 (TEM-1, SHV-11, SHV-12, KPC-2), CLA @ 4 μg/ml+ ATB): 64 µg/mL
MIC (KPN 110376, alone): > 128 µg/mL
MIC (KPN 131119, alone): > 128 µg/mL
MIC (KPN 190270, alone): > 128 µg/mL
MIC (KPN UFR25, alone): > 128 µg/mL
MIC (KPN UFR66, alone): 512 µg/mL
MIC (KPN UFR68, alone): > 128 µg/mL
MIC (strain KPN 6299 (TEM-1, SHV-11, OXA-163), ATB alone): 8 µg/mL
MIC (strain KPN 6299 (TEM-1, SHV-11, OXA-163), CLA @ 4 μg/ml+ ATB): 8 µg/mL
MIC (strain KPN 110376 (TEM-1, SHV-1, CTX-M-15, OXA-1, OXA-48), ATB alone): > 128 µg/mL
MIC (strain KPN 110376 (TEM-1, SHV-1, CTX-M-15, OXA-1, OXA-48), CLA @ 4 μg/ml+ ATB): 128 µg/mL
MIC (strain KPN 131119 (TEM-1, SHV-11, CTX-M-15, OXA-1, OXA-48), ATB alone): > 128 µg/mL
MIC (strain KPN 131119 (TEM-1, SHV-11, CTX-M-15, OXA-1, OXA-48), CLA @ 4 μg/ml+ ATB): > 128 µg/mL
MIC (strain KPN 140513 (TEM-1, SHV-11, CTX-M-15, KPC-3), ATB alone): > 128 µg/mL
MIC (strain KPN 140513 (TEM-1, SHV-11, CTX-M-15, KPC-3), CLA @ 4 μg/ml+ ATB): > 128 µg/mL
MIC (strain KPN 160143 (TEM-1, SHV-1, CTX-M-15, KPC-2, OXA-1), ATB alone): > 128 µg/mL
MIC (strain KPN 160143 (TEM-1, SHV-1, CTX-M-15, KPC-2, OXA-1), CLA @ 4 μg/ml+ ATB): 2 µg/mL
MIC (strain KPN 190128 (TEM-1, SHV-32, CTX-M-15, OXA-1), ATB alone): > 128 µg/mL
MIC (strain KPN 190128 (TEM-1, SHV-32, CTX-M-15, OXA-1), CLA @ 4 μg/ml+ ATB): 0.5 µg/mL
MIC (strain KPN 190270 (TEM-1, SHV-76, CTX-M-15, OXA-1), ATB alone): > 128 µg/mL
